Experimental data published in US10414811B2, “Protease-resistant lipidated GLP-1 analogs” (MEDIMMUNE LIMITED, priority 2015, dated 2019).
Where two headings read alike, the source gives them in different places. Numbered stars: 1 amine (or outer) side, 2 acyl side, 3 side chain; on linkers, the order of the positions; unused ones are H or OH. Square brackets hold non-standard residues; d marks the D form. Side chains are listed from the residue outwards. Peptide text beside a SMILES is read from it. * marks the point of attachment. γGlu = O=C(O)[C@H](CCC(=O)[*:2])N[*:1]; αMeF = C[C@](N)(Cc1ccccc1)C(=O)O; αMeK = C[C@](N)(CCCCN)C(=O)O; Lauroyl = CCCCCCCCCCCC(=O)*; αMeS = C[C@](N)(CO)C(=O)O; AEEA = NCCOCCOCC(=O)O; Aib = CC(C)(N)C(=O)O

Legend:
Format in all cases: cell-based
Settings in all cases: tris-lipidated peptides
[1] = target: T1, human glucagon receptor (GCGR) (Homo sapiens, UniProt P47871); test: cAMP assay, human GCGR cells
T1 construct: expressed in transfected cells
T1 sequence (P47871 26-477): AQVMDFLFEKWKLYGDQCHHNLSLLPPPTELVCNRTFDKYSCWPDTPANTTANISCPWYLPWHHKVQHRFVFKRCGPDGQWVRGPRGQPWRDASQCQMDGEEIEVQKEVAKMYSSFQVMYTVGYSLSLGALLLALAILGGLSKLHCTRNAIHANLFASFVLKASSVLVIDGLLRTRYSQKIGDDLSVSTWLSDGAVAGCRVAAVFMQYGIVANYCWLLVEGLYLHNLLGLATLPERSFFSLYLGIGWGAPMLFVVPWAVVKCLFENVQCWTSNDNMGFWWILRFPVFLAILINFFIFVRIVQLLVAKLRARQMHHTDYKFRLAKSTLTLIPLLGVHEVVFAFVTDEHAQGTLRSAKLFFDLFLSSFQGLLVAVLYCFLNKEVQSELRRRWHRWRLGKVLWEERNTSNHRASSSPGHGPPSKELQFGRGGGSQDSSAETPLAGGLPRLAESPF
Procedure, shortened: (§1)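 Peptide-stimulated cAMP measured by two-step HTRF after a 30 min room-temperature incubation with receptor-expressing cells (hGLP-1R, hGIPR at 1×10^5 cells/ml; hGCGR at 2×10^5 cells/ml). Duplicate dilutions; EC50 from 4-parameter logistic fit of % Delta F.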

[2] = target: T2, human GLP-1 receptor (GLP-1R) (Homo sapiens, UniProt P43220); test: cAMP assay, human GLP-1R cells
T2 construct: expressed in transfected cells
T2 sequence (P43220 24-463): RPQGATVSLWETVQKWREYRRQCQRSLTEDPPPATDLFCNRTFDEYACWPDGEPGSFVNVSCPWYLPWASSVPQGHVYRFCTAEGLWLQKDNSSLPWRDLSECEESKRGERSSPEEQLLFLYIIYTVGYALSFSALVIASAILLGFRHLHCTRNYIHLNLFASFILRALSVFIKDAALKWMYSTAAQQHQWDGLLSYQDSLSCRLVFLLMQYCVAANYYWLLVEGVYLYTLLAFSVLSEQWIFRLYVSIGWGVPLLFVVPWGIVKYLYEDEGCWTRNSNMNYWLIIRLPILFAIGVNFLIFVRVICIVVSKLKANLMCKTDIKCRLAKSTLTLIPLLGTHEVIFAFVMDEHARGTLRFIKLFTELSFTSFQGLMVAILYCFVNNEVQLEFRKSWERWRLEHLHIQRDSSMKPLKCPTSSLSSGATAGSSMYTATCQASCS
Procedure, shortened: as §1

[3] = target: T3, human glucose-dependent insulinotropic peptide receptor (GIPR) (Homo sapiens, UniProt P48546); test: cAMP assay, human GIPR cells
T3 construct: expressed in transfected cells
T3 sequence (P48546 22-466): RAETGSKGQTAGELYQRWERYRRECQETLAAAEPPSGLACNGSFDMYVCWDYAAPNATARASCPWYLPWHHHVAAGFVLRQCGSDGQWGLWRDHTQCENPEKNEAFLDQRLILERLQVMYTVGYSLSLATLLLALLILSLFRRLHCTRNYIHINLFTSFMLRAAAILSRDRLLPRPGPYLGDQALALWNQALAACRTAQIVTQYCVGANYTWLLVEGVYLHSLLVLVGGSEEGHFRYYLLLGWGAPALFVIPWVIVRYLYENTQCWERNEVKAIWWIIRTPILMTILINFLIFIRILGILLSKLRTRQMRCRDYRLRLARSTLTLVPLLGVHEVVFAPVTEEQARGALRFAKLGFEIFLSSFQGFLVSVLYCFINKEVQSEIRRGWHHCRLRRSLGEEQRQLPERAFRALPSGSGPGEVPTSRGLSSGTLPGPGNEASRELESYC
Procedure, shortened: as §1

[4] = second replicate, read-out: Primary assay EC50 Gluc-R (n2)
[5] = mean of n1 and n2, read-out: Primary assay EC50 Mean pM GLP-1R
[6] = replicate n1, read-out: Primary assay EC50 GLP-1R n1
[7] = replicate n2, read-out: Primary assay EC50 GLP-1R n2
[8] = first replicate, read-out: Primary assay EC50 GIP-R (n1)
[9] = first replicate, read-out: Primary assay EC50 Gluc-R (n1)

Row | Compound | EC50 [1, 4] [nM] | EC50 [2, 5] [pM] | EC50 [2, 6] [pM] | EC50 [2, 7] [pM] | EC50 [3, 8] [nM] | EC50 [1, 9] [nM] | EC50 ([3]; second replicate, read-out: Primary assay EC50 GIP-R (n2)) [nM]
1 | CCCCCCCCCCCC(=O)N[C@@H](CCC(=O)NCCOCCOCC(=O)NCCOCCOCC(=O)NCCCC[C@H](NC(=O)CNC(=O)[C@H](CCC(=O)O)NC(=O)[C@H](CC(C)C)NC(=O)[C@H](CCCCNC(=O)COCCOCCNC(=O)COCCOCCNC(=O)CC[C@H](NC(=O)CCCCCCCCCCC)C(=O)O)NC(=O)[C@H](CO)NC(=O)[C@](C)(CO)NC(=O)[C@@H](NC(=O)[C@H](CC(=O)O)NC(=O)[C@H](CO)NC(=O)[C@@H](NC(=O)[C@](C)(Cc1ccccc1)NC(=O)[C@H](CO)NC(=O)CNC(=O)[C@H](CCC(=O)O)NC(=O)C(C)(C)NC(=O)[C@@H](N)Cc1c[nH]cn1)[C@@H](C)O)C(C)C)C(=O)N[C@@H](C)C(=O)N[C@@H](C)C(=O)N[C@@](C)(CCCCN)C(=O)N[C@@H](CCC(=O)O)C(=O)N[C@@H](Cc1ccccc1)C(=O)N[C@H](C(=O)N[C@@H](CCCCNC(=O)COCCOCCNC(=O)COCCOCCNC(=O)CC[C@H](NC(=O)CCCCCCCCCCC)C(=O)O)C(=O)N[C@@H](Cc1ccccc1)C(=O)N[C@H](C(=O)N[C@H](C(=O)N[C@@H](CCC(=O)O)C(=O)NCC(=O)NCC(N)=O)C(C)C)C(C)C)[C@@H](C)CC)C(=O)O [compound 448] (H-H[Aib]EGS[αMeF]TSDV[αMeS]SK([AEEA-AEEA-γGlu-Lauroyl])LEGK([AEEA-AEEA-γGlu-Lauroyl])AA[αMeK]EFIK([AEEA-AEEA-γGlu-Lauroyl])FVVEGG-NH2) | 19.9 | 92.4 | 78.8 | 106 | 19.9 | – | –
2 | CCCCCCCCCCCC(=O)N[C@@H](CCC(=O)NCCOCCOCC(=O)NCCOCCOCC(=O)NCCCC[C@H](NC(=O)[C@H](CCC(=O)O)NC(=O)CNC(=O)[C@H](CCC(=O)O)NC(=O)[C@H](CC(C)C)NC(=O)[C@H](CCCCNC(=O)COCCOCCNC(=O)COCCOCCNC(=O)CC[C@H](NC(=O)CCCCCCCCCCC)C(=O)O)NC(=O)[C@H](CO)NC(=O)[C@](C)(CO)NC(=O)[C@@H](NC(=O)[C@H](CC(=O)O)NC(=O)[C@H](CO)NC(=O)[C@@H](NC(=O)[C@](C)(Cc1ccccc1)NC(=O)[C@H](CO)NC(=O)CNC(=O)[C@H](CCC(=O)O)NC(=O)C(C)(C)NC(=O)[C@@H](N)Cc1c[nH]cn1)[C@@H](C)O)C(C)C)C(=O)N[C@@H](C)C(=O)N[C@@](C)(CCCCN)C(=O)N[C@@H](CCC(=O)O)C(=O)N[C@@H](Cc1ccccc1)C(=O)N[C@H](C(=O)N[C@@H](CCCCNC(=O)COCCOCCNC(=O)COCCOCCNC(=O)CC[C@H](NC(=O)CCCCCCCCCCC)C(=O)O)C(=O)N[C@@H](Cc1ccccc1)C(=O)N[C@H](C(=O)N[C@H](C(=O)N[C@@H](CCC(=O)O)C(=O)NCC(=O)NCC(N)=O)C(C)C)C(C)C)[C@@H](C)CC)C(=O)O [compound 449] (H-H[Aib]EGS[αMeF]TSDV[αMeS]SK([AEEA-AEEA-γGlu-Lauroyl])LEGEK([AEEA-AEEA-γGlu-Lauroyl])A[αMeK]EFIK([AEEA-AEEA-γGlu-Lauroyl])FVVEGG-NH2; N-terminus assumed) | – | 246 | 216 | 276 | 19.7 | 19.7 | –
3 | CCCCCCCCCCCC(=O)N[C@@H](CCC(=O)NCCOCCOCC(=O)NCCOCCOCC(=O)NCCCC[C@H](NC(=O)[C@H](CCC(=O)O)NC(=O)[C@H](CCCCNC(=O)COCCOCCNC(=O)COCCOCCNC(=O)CC[C@H](NC(=O)CCCCCCCCCCC)C(=O)O)NC(=O)[C@H](Cc1ccc(O)cc1)NC(=O)[C@H](CO)NC(=O)[C@](C)(CO)NC(=O)[C@@H](NC(=O)[C@H](CC(=O)O)NC(=O)[C@H](CO)NC(=O)[C@@H](NC(=O)[C@](C)(Cc1ccccc1)NC(=O)[C@H](CO)NC(=O)CNC(=O)[C@H](CCC(=O)O)NC(=O)C(C)(C)NC(=O)[C@@H](N)Cc1c[nH]cn1)[C@@H](C)O)C(C)C)C(=O)N[C@@H](CCC(=O)O)C(=O)N[C@@H](C)C(=O)N[C@@H](C)C(=O)N[C@@](C)(CCCCN)C(=O)N[C@@H](CCC(=O)O)C(=O)N[C@@H](Cc1ccccc1)C(=O)N[C@H](C(=O)N[C@@H](CCCCNC(=O)COCCOCCNC(=O)COCCOCCNC(=O)CC[C@H](NC(=O)CCCCCCCCCCC)C(=O)O)C(=O)N[C@@H](Cc1ccccc1)C(=O)N[C@H](C(=O)N[C@H](C(=O)N[C@@H](CCC(=O)O)C(=O)NCC(=O)NCC(N)=O)C(C)C)C(C)C)[C@@H](C)CC)C(=O)O [compound 451] (H-H[Aib]EGS[αMeF]TSDV[αMeS]SYK([AEEA-AEEA-γGlu-Lauroyl])EK([AEEA-AEEA-γGlu-Lauroyl])EAA[αMeK]EFIK([AEEA-AEEA-γGlu-Lauroyl])FVVEGG-NH2; N-terminus assumed) | – | 93.4 | 28.8 | 158 | 19.7 | 19.7 | –
4 | CCCCCCCCCCCC(=O)N[C@@H](CCC(=O)NCCOCCOCC(=O)NCCOCCOCC(=O)NCCCC[C@H](NC(=O)CNC(=O)[C@H](CCC(=O)O)NC(=O)[C@H](CCCCNC(=O)COCCOCCNC(=O)COCCOCCNC(=O)CC[C@H](NC(=O)CCCCCCCCCCC)C(=O)O)NC(=O)[C@H](Cc1ccc(O)cc1)NC(=O)[C@H](CO)NC(=O)[C@](C)(CO)NC(=O)[C@@H](NC(=O)[C@H](CC(=O)O)NC(=O)[C@H](CO)NC(=O)[C@@H](NC(=O)[C@](C)(Cc1ccccc1)NC(=O)[C@H](CO)NC(=O)CNC(=O)[C@H](CCC(=O)O)NC(=O)C(C)(C)NC(=O)[C@@H](N)Cc1c[nH]cn1)[C@@H](C)O)C(C)C)C(=O)N[C@@H](C)C(=O)N[C@@H](C)C(=O)N[C@@](C)(CCCCN)C(=O)N[C@@H](CCC(=O)O)C(=O)N[C@@H](Cc1ccccc1)C(=O)N[C@H](C(=O)N[C@@H](CCCCNC(=O)COCCOCCNC(=O)COCCOCCNC(=O)CC[C@H](NC(=O)CCCCCCCCCCC)C(=O)O)C(=O)N[C@@H](Cc1ccccc1)C(=O)N[C@H](C(=O)N[C@H](C(=O)N[C@@H](CCC(=O)O)C(=O)NCC(=O)NCC(N)=O)C(C)C)C(C)C)[C@@H](C)CC)C(=O)O [compound 452] (H-H[Aib]EGS[αMeF]TSDV[αMeS]SYK([AEEA-AEEA-γGlu-Lauroyl])EGK([AEEA-AEEA-γGlu-Lauroyl])AA[αMeK]EFIK([AEEA-AEEA-γGlu-Lauroyl])FVVEGG-NH2; N-terminus assumed) | 19.7 | 80.9 | 85.7 | 76.1 | – | – | 19.7
5 | CCCCCCCCCCCC(=O)N[C@@H](CCC(=O)NCCOCCOCC(=O)NCCOCCOCC(=O)NCCCC[C@H](NC(=O)[C@H](CCC(=O)O)NC(=O)CNC(=O)[C@H](CCC(=O)O)NC(=O)[C@H](CCCCNC(=O)COCCOCCNC(=O)COCCOCCNC(=O)CC[C@H](NC(=O)CCCCCCCCCCC)C(=O)O)NC(=O)[C@H](Cc1ccc(O)cc1)NC(=O)[C@H](CO)NC(=O)[C@](C)(CO)NC(=O)[C@@H](NC(=O)[C@H](CC(=O)O)NC(=O)[C@H](CO)NC(=O)[C@@H](NC(=O)[C@](C)(Cc1ccccc1)NC(=O)[C@H](CO)NC(=O)CNC(=O)[C@H](CCC(=O)O)NC(=O)C(C)(C)NC(=O)[C@@H](N)Cc1c[nH]cn1)[C@@H](C)O)C(C)C)C(=O)N[C@@H](C)C(=O)N[C@@](C)(CCCCN)C(=O)N[C@@H](CCC(=O)O)C(=O)N[C@@H](Cc1ccccc1)C(=O)N[C@H](C(=O)N[C@@H](CCCCNC(=O)COCCOCCNC(=O)COCCOCCNC(=O)CC[C@H](NC(=O)CCCCCCCCCCC)C(=O)O)C(=O)N[C@@H](Cc1ccccc1)C(=O)N[C@H](C(=O)N[C@H](C(=O)N[C@@H](CCC(=O)O)C(=O)NCC(=O)NCC(N)=O)C(C)C)C(C)C)[C@@H](C)CC)C(=O)O [compound 453] (H-H[Aib]EGS[αMeF]TSDV[αMeS]SYK([AEEA-AEEA-γGlu-Lauroyl])EGEK([AEEA-AEEA-γGlu-Lauroyl])A[αMeK]EFIK([AEEA-AEEA-γGlu-Lauroyl])FVVEGG-NH2) | 19.5 | 114 | 62.9 | 165 | 19.5 | – | –
